The values below come from PubChem BioAssay (NCI).

Structures are written as SMILES. Several values for one entry are separate records, joined by “and”; a condition that tells them apart may be missing. Equal entries are not always repeated.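 Growth conditions: 96-well plates. Treatment: test compound, 48 hours, 5 concentrations. Analysis: linear interpolation between bracketing concentrations; unreached endpoints set to highest concentration. GI50 = concentration required for 50% inhibition of growth. TGI marks complete inhibition of growth.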

Test systems include CAKI-1 renal; HCT-116 colon; HCT-15 colon; HS 578T breast; OVCAR-3 ovarian; OVCAR-5 ovarian; OVCAR-8 ovarian; SF-268 CNS; SK-MEL-28 melanoma; SK-MEL-5 melanoma; SK-OV-3 ovarian; U251 CNS.
What all share (assay): growth of human tumour cells (NCI), 48 h

`CN(C)c1ccc(/C=C2/SC(=S)NC2=O)cc1`: the TGI in the assay with CAKI-1 renal was more than 100 µM; with HCT-116 colon it was more than 100 µM; in the assay with HCT-15 colon it was more than 100 µM; in the assay on HS 578T breast, more than 100 µM; in the assay with OVCAR-3 ovarian, more than 100 µM; in the assay with OVCAR-5 ovarian it was 72.6 µM. Also, the TGI in the assay with OVCAR-8 ovarian, with SF-268 CNS, with SK-MEL-28 melanoma, with SK-MEL-5 melanoma, in the assay on SK-OV-3 ovarian and in the assay with U251 CNS was more than 100 µM throughout.

Turning to `CC1=C(C)C(=O)O[C@@H]([C@](C)(O)[C@]2(O)CC[C@@]3(O)[C@@H]4C[C@H]5O[C@]56[C@@H](O)C=CC(=O)[C@]6(C)[C@H]4CC[C@]23C)C1`, the TGI in the assay with HCT-116 colon was 2.88 µM; in the assay with HCT-15 colon, 2.87 µM and 3.02 µM; in the assay with OVCAR-3 ovarian, 1.64 µM and 0.359 µM; in the assay on OVCAR-5 ovarian, 8.44 µM and 5.88 µM; in the assay on OVCAR-8 ovarian it was 4.2 µM; with SK-MEL-28 melanoma, 5.86 µM and 3.44 µM. Further, the TGI in the assay on SK-MEL-5 melanoma was 2.18 µM; in the assay with SK-OV-3 ovarian it was 14.7 µM and 20.4 µM; with U251 CNS, 6.71 µM and 6.54 µM. The GI50 is 0.169 µM with HCT-15 colon; 0.136 µM and 0.0594 µM in the assay on OVCAR-3 ovarian; 3.55 µM and 1.47 µM in the assay on OVCAR-5 ovarian; 0.155 µM with OVCAR-8 ovarian; 1.3 µM and 0.381 µM in the assay on SF-268 CNS; 0.606 µM and 0.228 µM in the assay on SK-MEL-28 melanoma. The GI50 in the assay with U251 CNS is 2.51 µM.

Regarding `CC(C)(C)NCc1cc(Nc2ccnc3cc(Cl)ccc23)cc(-c2ccc(Cl)cc2)c1O`, the TGI in the assay on CAKI-1 renal is 10.6 µM; in the assay with HCT-116 colon, 5.79 µM; in the assay on HCT-15 colon, 9.96 µM; in the assay on HS 578T breast, 6.37 µM; in the assay with OVCAR-3 ovarian, 8.75 µM; in the assay with OVCAR-5 ovarian, 16.3 µM. Besides, the TGI with OVCAR-8 ovarian worked out at 14.8 µM; in the assay on SF-268 CNS, 16.2 µM; with SK-MEL-28 melanoma, 3.26 µM; in the assay on SK-MEL-5 melanoma it was 3.15 µM; in the assay on SK-OV-3 ovarian, 16.9 µM; in the assay on U251 CNS, 8.65 µM.

Consider `O=c1[nH]c(Nc2ccc(F)c(Cl)c2)nc2nc[nH]c12`, for which the TGI in the assay on CAKI-1 renal, in the assay with HCT-116 colon, in the assay with HCT-15 colon, with HS 578T breast, in the assay with OVCAR-3 ovarian and with OVCAR-5 ovarian was more than 100 µM throughout. The TGI in the assay on OVCAR-8 ovarian, in the assay with SF-268 CNS, in the assay on SK-MEL-28 melanoma, with SK-MEL-5 melanoma, in the assay on SK-OV-3 ovarian and in the assay with U251 CNS was more than 100 µM throughout.

With `CC1C(=O)OC2CC[N+]3(CC(=O)c4ccc(Br)cc4)CC=C(COC(=O)C(C)(O)C1(C)O)C23` (centres undefined), the TGI in the assay with CAKI-1 renal was more than 375 µM; with HCT-116 colon, more than 375 µM; in the assay with HCT-15 colon, more than 375 µM; in the assay on OVCAR-3 ovarian, more than 375 µM; in the assay with OVCAR-5 ovarian, more than 375 µM; with OVCAR-8 ovarian it was more than 17.4 µM. For the same compound, the TGI in the assay on SF-268 CNS, with SK-MEL-28 melanoma, with SK-MEL-5 melanoma, in the assay with SK-OV-3 ovarian and in the assay with U251 CNS was more than 375 µM each time.

On to `COCO[C@@H]1C[C@H]2C(O)Nc3ccccc3C(=O)N2C1` (some centres undefined), for which the TGI with CAKI-1 renal, in the assay with HCT-15 colon, in the assay with HS 578T breast, in the assay on OVCAR-3 ovarian, in the assay with OVCAR-5 ovarian and with OVCAR-8 ovarian was more than 100 µM each time. Also, the TGI in the assay with SF-268 CNS, in the assay on SK-MEL-28 melanoma, in the assay with SK-MEL-5 melanoma, with SK-OV-3 ovarian and in the assay on U251 CNS was more than 100 µM throughout.

In the case of `COC(=O)CCC(=O)CC(=O)C1=NS(=O)(=O)c2nc(S(N)(=O)=O)c(Cl)cc2N1`, the TGI in the assay with CAKI-1 renal, in the assay with HCT-116 colon, with HCT-15 colon, in the assay with OVCAR-3 ovarian, in the assay with OVCAR-5 ovarian and in the assay with OVCAR-8 ovarian was more than 100 µM throughout. The TGI in the assay on SF-268 CNS, in the assay on SK-MEL-28 melanoma, in the assay on SK-MEL-5 melanoma, with SK-OV-3 ovarian and in the assay with U251 CNS was more than 100 µM throughout.

For the compound `O=C(O)CCCCCCC[C@@H]1S[C@H]1CCCCCCO`, the TGI in the assay on CAKI-1 renal, in the assay on HCT-116 colon, in the assay on HCT-15 colon, in the assay on OVCAR-3 ovarian, in the assay on OVCAR-5 ovarian and in the assay with OVCAR-8 ovarian was more than 100 µM throughout. Moreover, the TGI with SF-268 CNS, with SK-MEL-28 melanoma, with SK-MEL-5 melanoma, in the assay on SK-OV-3 ovarian and with U251 CNS was more than 100 µM throughout.

As to `C[n+]1c2ccccc2c(CNc2ccc(S(=O)(=O)N=C(N)N)cc2)c2ccccc21`, the TGI was 19.9 µM with CAKI-1 renal; 27.2 µM in the assay on HCT-116 colon; 32.3 µM with HCT-15 colon; 48.7 µM in the assay on OVCAR-3 ovarian; more than 100 µM with OVCAR-5 ovarian; 55.4 µM with OVCAR-8 ovarian. Also, the TGI in the assay with SF-268 CNS is more than 100 µM; in the assay on SK-MEL-28 melanoma it was 40.7 µM; in the assay on SK-MEL-5 melanoma, 22.8 µM; in the assay on SK-OV-3 ovarian it was more than 100 µM.

In the case of `N#C[S-].[Nd+3].c1cnc2c(c1)ccc1cccnc12.c1cnc2c(c1)ccc1cccnc12.c1cnc2c(c1)ccc1cccnc12`, the TGI in the assay on CAKI-1 renal was 15.1 µM; in the assay with HCT-116 colon, 6.43 µM; with OVCAR-3 ovarian, 16.1 µM; with OVCAR-5 ovarian, 15.3 µM; with SF-268 CNS, 43 µM; with SK-MEL-28 melanoma, 32.1 µM. For the same compound, the values for the TGI with SK-MEL-5 melanoma, in the assay with SK-OV-3 ovarian and in the assay on U251 CNS were 14.1 µM, 12.5 µM and 12.4 µM, respectively.

With `CCSc1nc(N)c2c(-c3ccc(OC)c(OC)c3)c3c(nc2n1)CCCC3`, the TGI with CAKI-1 renal, in the assay on HCT-116 colon, in the assay with HCT-15 colon, in the assay on HS 578T breast, with OVCAR-3 ovarian and in the assay on OVCAR-5 ovarian was more than 100 µM each time. Further, the TGI with OVCAR-8 ovarian, in the assay with SF-268 CNS, in the assay on SK-MEL-28 melanoma, with SK-MEL-5 melanoma, in the assay on SK-OV-3 ovarian and in the assay with U251 CNS was more than 100 µM throughout.

Turning to `Cc1cc(NC(=S)Nc2ccccc2)c(NC(=S)Nc2ccccc2)cc1C`, the TGI in the assay on CAKI-1 renal is more than 89.6 µM; with HCT-116 colon, more than 100 µM; in the assay with HCT-15 colon, more than 100 µM; in the assay on OVCAR-3 ovarian, 50.9 µM; with OVCAR-5 ovarian, more than 100 µM; in the assay on OVCAR-8 ovarian, more than 100 µM. The TGI is more than 100 µM in the assay on SF-268 CNS; more than 100 µM with SK-MEL-28 melanoma; more than 100 µM in the assay with SK-MEL-5 melanoma; more than 75 µM in the assay with SK-OV-3 ovarian; more than 63.4 µM in the assay with U251 CNS.

Turning to `CC(C)=CC1C(COC(=O)c2cc3c(cc2Cl)OCO3)C1(C)C` (centres undefined), the TGI with CAKI-1 renal is 69.7 µM; in the assay on HCT-116 colon it was more than 100 µM; in the assay with HCT-15 colon, 92.6 µM; in the assay with HS 578T breast, 53.8 µM; in the assay with OVCAR-3 ovarian, 65.1 µM; in the assay on OVCAR-5 ovarian it was more than 100 µM. The TGI is more than 100 µM in the assay with OVCAR-8 ovarian; 65.8 µM in the assay with SF-268 CNS; more than 100 µM in the assay with SK-MEL-28 melanoma; 39.6 µM with SK-MEL-5 melanoma; 86 µM in the assay on U251 CNS.
